Converted amounts (≈) assume the structure as drawn. Read-outs that look alike come from different tables or passages of the source.
Assays:
[1] = Water solubility of exemplified compounds, USP solubility definition; assay type: physicochemical
Excerpt: “Solubility” generally refers to the degree to which a substance dissolves in a solvent to make a solution (usually expressed as grams of solute per liter of solvent). Solubility of one fluid (liquid or gas) in another may be complete (totally miscible; e.g., methanol and water) or partial (e.g., oil and water dissolve only slightly). In general, “like dissolves like” (e.g., aromatic hydrocarbons dissolve in each other but not in water). Solubility is the ability of a solid, liquid, or gaseous chemical substance (referred to as the solute) to dissolve in a solvent (usually a liquid) and form a solution. The solubility of a substance depends on the types of solvent used, their polarity, and the temperature and pressure to which they are subjected. The solubility of a substance in a particular solvent is measured by the concentration of the saturated solution. A solution is considered saturated when adding additional solute no longer increases the concentration of the solution. The degree of solubility ranges widely depending on the substances, from infinitely soluble (fully miscible), such as ethanol in water, to poorly soluble, such as silver chloride in water. The term “insoluble” is often applied to poorly soluble compounds. Under certain conditions, the equilibrium solubility can be exceeded, yielding a supersaturated solution.
“Poorly water-soluble chemical compounds”: The United States Pharmacopeia (USP) designates the solubility of drugs as parts of solvent required for one part solute. […] The USP lists the solubility of a drug as the quantity of milliliters of solvent in which 1 g of solute will dissolve and assigns a descriptive term in the summary provided below.

[2] = cited from earlier work
[3] = cited from earlier work; remark: listed apart in the source
[4] = cited from earlier work; remark: listed apart in the source
[5] = Solubility screening panel in DEGEE; assay type: physicochemical
Excerpt: Fisetin, trans-resveratrol, and milk thistle extract (comprising silymarin) were all found to be soluble in DEGEE in a solubility screening panel evaluating surfactants and other emulsifiers for use in topical delivery. An initial objective was to find a suitable miscible oil for use in hair applications, such as argan, sesame, sunflower, fractionated coconut, and grape seed oils. […] The next step was to evaluate oil soluble emulsifiers, such as glyceryl oleate, sorbitan oleate, lauryl oleate, and lauryl sulfate. […] Oleic acid (a fatty acid) is known to be miscible with DEGEE, but it is a […] fatty acid, which makes it an unfavorable choice for use in a long-term topical dosing formulation. Oleic acid was evaluated with a mixture of sorbitan laurate, polyglyceryl-4 laurate, and dilauryl citrate. This formulation made a miscible mixture with fisetin, trans-resveratrol, and milk thistle dissolved in DEGEE. However, the dilution of the mixture with water created a suspension, and once again, the solids precipitated out after approximately one hour.

[6] = cited from earlier work; remark: listed apart in the source
Janus kinase 3 (JAK3) = target: T1, Janus kinase 3 (JAK3) (Homo sapiens, UniProt P52333); conditions: cited from earlier work
T1 sequence (P52333 1-1124): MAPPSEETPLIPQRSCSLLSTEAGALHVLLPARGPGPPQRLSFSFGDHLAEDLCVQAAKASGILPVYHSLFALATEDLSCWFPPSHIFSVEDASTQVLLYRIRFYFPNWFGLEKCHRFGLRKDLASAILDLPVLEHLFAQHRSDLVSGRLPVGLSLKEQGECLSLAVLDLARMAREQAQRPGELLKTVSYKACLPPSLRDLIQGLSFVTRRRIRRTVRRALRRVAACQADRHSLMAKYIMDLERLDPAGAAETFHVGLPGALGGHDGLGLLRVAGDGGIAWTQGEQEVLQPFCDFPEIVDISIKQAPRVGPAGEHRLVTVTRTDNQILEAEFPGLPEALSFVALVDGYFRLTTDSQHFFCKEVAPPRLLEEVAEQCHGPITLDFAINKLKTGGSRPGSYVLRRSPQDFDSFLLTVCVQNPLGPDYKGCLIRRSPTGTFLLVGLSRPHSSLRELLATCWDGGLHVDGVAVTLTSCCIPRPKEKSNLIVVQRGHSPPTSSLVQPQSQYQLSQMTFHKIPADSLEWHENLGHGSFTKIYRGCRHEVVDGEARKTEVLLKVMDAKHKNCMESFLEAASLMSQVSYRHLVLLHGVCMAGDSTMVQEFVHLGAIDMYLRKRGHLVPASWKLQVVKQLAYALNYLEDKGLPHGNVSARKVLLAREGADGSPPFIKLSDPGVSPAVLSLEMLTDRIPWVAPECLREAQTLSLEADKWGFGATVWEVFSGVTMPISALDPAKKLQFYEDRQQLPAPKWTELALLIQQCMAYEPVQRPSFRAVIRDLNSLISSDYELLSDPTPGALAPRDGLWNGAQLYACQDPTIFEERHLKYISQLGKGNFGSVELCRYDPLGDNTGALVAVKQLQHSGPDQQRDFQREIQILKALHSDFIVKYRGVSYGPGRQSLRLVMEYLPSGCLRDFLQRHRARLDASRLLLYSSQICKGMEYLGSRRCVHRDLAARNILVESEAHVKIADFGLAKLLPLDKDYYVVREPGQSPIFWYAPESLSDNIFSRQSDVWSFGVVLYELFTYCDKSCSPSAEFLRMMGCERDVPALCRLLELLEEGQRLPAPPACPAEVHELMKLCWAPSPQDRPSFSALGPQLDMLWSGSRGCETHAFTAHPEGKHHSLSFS

Row | Definition (USP solubility descriptive term) ([1]; water) | mass_water/mass_solute ([1]; water) | Compound | reported aqueous solubility [4] | solubility in DEGEE [5] | Water Solubility [4] [µg/mL] | also measured
1 | practically insoluble | 33,333 | Oc1ccc(/C=C/c2cc(O)cc(O)c2)cc1 [trans-Resveratrol, 5-[(E)-2-(4-hydroxyphenyl)ethen-1-yl]benzene-1,3-diol] | about 0.03 mg/mL | soluble |  | half-life ([3]; in vivo): about 15 min; bioavailability ([3]; oral): about 0.5%
2 | very slightly insoluble | 2,500 | O=C1c2c(O)cc(O)cc2O[C@H](c2ccc(O)c(O)c2)[C@H]1O [Dihydroquercetin] |  |  | 400 | 

Continued, compound first:

Row | Compound | Definition (USP solubility descriptive term) ([1]; water) | mass_water/mass_solute ([1]; water) | reported aqueous solubility [4] | solubility in DEGEE [5] | Water Solubility [4] [µg/mL] | also measured
3 | Silymarin |  |  |  |  |  | Definition (USP solubility descriptive term) [1]: very slightly insoluble; mass_water/mass_solute [1]: 2,500
4 | O=C(O[C@@H]1Cc2c(O)cc(O)cc2O[C@@H]1c1cc(O)c(O)c(O)c1)c1cc(O)c(O)c(O)c1 [EGCG, [(2R,3R)-5,7-dihydroxy-2-(3,4,5-trihydroxyphenyl)chroman-3-yl]3,4,5-trihydroxybenzoate] |  |  |  |  |  | time at which blood levels peak ([2]; after consumption (oral)): ≤ 1.7 h; time by which majority of unchanged EGCG is excreted into the urine ([2]; from almost immediately): ≤ 8 h; absorbed plasma half-life ([2]; oral): about 5 hours
5 | O=c1c(O)c(-c2ccc(O)c(O)c2)oc2cc(O)ccc12 [Fisetin, 2-(3,4-dihydroxyphenyl)-3,7-dihydroxy-4H-1-benzopyran-4-one] | practically insoluble | 100,000 | about 0.01 mg/mL | soluble | 10 | log P [6]: 3.2; aqueous solubility ([4]; literature): 10.45 µg/mL (≈ 36.5 µM)
6 | C/C=C(/C)C(=O)O[C@H]1[C@@H]2[C@H](C)C(=O)O[C@@H]2C[C@@H](C)[C@@H]2C=CC(=O)[C@]21C [Brevilin A] |  |  |  |  |  | inhibition of JAK3 (Janus kinase 3 (JAK3)): inhibit

Source: patent publication US20230330019A1, “EMULSION FORMULATIONS OF POORLY WATER-SOLUBLE COMPOUNDS” (priority 2022, published 2023)
